According to publication PMC4131897 (Biochemistry, 2014):
Positions count from the first letter of the chain named.

Experiments:
Type in all cases: binding
[1] = target: T1, BjPutA (proline utilization A) (Bradyrhizobium diazoefficiens, UniProt Q89E26); assay: intrinsic tryptophan fluorescence quenching, single-site fit
T1 sequence (Q89E26 1-999): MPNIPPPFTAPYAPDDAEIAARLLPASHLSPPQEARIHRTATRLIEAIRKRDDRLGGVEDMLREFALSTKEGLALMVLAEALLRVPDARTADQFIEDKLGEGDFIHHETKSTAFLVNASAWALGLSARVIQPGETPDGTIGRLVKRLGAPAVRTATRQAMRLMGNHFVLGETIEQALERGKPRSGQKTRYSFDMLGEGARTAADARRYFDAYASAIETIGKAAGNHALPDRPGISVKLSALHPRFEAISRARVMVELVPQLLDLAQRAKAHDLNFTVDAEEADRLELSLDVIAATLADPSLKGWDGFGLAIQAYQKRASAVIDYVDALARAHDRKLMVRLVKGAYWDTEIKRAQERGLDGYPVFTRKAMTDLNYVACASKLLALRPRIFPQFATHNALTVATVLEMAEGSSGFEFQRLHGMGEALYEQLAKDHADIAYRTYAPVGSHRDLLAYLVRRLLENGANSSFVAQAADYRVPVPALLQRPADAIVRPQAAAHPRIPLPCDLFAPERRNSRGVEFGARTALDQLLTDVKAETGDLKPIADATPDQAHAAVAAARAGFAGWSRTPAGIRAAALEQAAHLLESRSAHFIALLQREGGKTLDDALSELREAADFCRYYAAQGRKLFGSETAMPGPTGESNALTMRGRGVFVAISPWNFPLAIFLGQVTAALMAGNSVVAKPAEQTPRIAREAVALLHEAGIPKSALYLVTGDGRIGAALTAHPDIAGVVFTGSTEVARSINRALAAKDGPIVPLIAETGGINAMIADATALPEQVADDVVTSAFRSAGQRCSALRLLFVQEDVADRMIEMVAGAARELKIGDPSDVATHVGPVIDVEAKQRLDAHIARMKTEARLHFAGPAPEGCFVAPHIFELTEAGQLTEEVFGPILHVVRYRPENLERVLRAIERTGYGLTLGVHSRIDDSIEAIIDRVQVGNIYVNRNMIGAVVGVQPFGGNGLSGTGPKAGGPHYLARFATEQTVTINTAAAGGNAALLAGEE

[2] = target: T2, BjPutA (proline utilization A) (Bradyrhizobium diazoefficiens, UniProt Q89E26, S607Y); assay: intrinsic tryptophan fluorescence quenching
T2 sequence (Q89E26 1-999 S607Y): T1 sequence (Q89E26 1-999) with S607Y

[3] = target: T3, BjPutA (proline utilization A) (Bradyrhizobium diazoefficiens, UniProt Q89E26, D779A); assay: intrinsic tryptophan fluorescence quenching
T3 sequence (Q89E26 1-999 D779A): T1 sequence (Q89E26 1-999) with D779A

Kd [1]: 600 ± 40 nM
Kd [2]: 1000 ± 40 nM
Kd [3]: 640 ± 50 nM
Compound: NC(=O)c1ccc[n+]([C@@H]2O[C@H](COP(=O)(O)OP(=O)(O)OC[C@H]3O[C@@H](n4cnc5c(N)ncnc54)[C@H](O)[C@@H]3O)[C@@H](O)[C@H]2O)c1 [NAD^+]
